In patent US20110065706A1, “Therapeutic Agents 812” (AstraZeneca AB, priority 2009, published 2011):

Target: T1, human GPR119 (Homo sapiens, UniProt Q8TDV5)
T1 construct: expressed in transfected cells; host or cells: HEK 293s
T1 sequence (Q8TDV5 1-335): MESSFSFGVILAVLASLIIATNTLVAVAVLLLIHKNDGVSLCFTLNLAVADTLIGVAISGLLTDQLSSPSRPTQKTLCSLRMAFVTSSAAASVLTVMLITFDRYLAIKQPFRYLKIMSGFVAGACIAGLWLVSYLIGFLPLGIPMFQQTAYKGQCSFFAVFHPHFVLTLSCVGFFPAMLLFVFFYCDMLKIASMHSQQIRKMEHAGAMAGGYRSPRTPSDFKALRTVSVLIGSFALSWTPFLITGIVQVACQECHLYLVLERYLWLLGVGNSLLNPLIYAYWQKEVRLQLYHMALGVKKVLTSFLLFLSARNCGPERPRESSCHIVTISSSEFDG
Test: Cyclic AMP (HTRF cAMP) assay for human GPR119, Method A
Format: cell-based
Conditions: Method A, HEK 293s cells over-expressing human GPR119; for activation at 30 µM: HEK293S, 0.75 h, percent effect at top concentration 30 μM relative to maximum (50 μM Oleoylethanolamide) and minimum (1% DMSO) controls; for EC50: midpoint of dose response curve, selected examples

activation at 30 µM [%]	EC50 [µM]	SMILES
48	–	CN(CCO)C(=O)c1ccc(COc2cnc(N3CCN(C(=O)OC(C)(C)C)CC3)nc2)cc1 [Example 43, Tert-butyl 4-(5-(4-((2-hydroxyethyl)(methyl)carbamoyl)benzyloxy)pyrimidin-2-yl)piperazine-1-carboxylate]
61	–	CC(C)(C)OC(=O)N1CCN(c2ncc(OCc3ccc(C(=O)NCCO)cc3)cn2)CC1 [Example 44, tert-butyl 4-(5-(4-(2-hydroxyethyl-carbamoyl)benz-yloxy)pyrimi-din-2-yl)piperazine-1-carboxylate]
142	–	CNC(=O)c1ccc(COc2cnc(N3CCN(C(=O)OC(C)(C)C)CC3)nc2)cc1 [Example 45, tert-butyl 4-(5-(4-(methylcarba-moyl)benzyloxy)pyrimidin-2-yl)piperazine-1-carboxylate]
94	0.032	CC(C)NC(=O)c1ccc(COc2cnc(N3CCN(C(=O)OC(C)(C)C)CC3)nc2)cc1 [Example 46, tert-butyl 4-(5-(4-(isopropylcarba-moyl)benzyl-oxy)pyrimidin-2-yl)piperazine-1-carboxylate]
109	–	CC(C)(C)NC(=O)c1ccc(COc2cnc(N3CCN(C(=O)OC(C)(C)C)CC3)nc2)cc1 [Example 47, tert-butyl 4-(5-(4-(tert-butylcarbamoyl)benzyloxy)pyrimidin-2-yl)piperazine-1-carboxylate]
26	–	CN(C)CCNC(=O)c1ccc(COc2cnc(N3CCN(C(=O)OC(C)(C)C)CC3)nc2)cc1 [Example 48, tert-butyl 4-(5-(4-(2-(dimethylamino)ethylcarba-moyl)benzyloxy)pyrimidin-2-yl)piperazine-1-carboxylate]
27	2.04	CN(C)CCN(C)C(=O)c1ccc(COc2cnc(N3CCN(C(=O)OC(C)(C)C)CC3)nc2)cc1 [Example 49, tert-butyl 4-(5-(4-((2-(dimethylamino)ethyl)(methyl)carbamoyl)benzyloxy)pyrim-idin-2-yl)piperazine-1-carboxylate]
23	–	CC(C)(C)OC(=O)N1CCN(c2ncc(OCc3ccc(C(=O)N4CCNCC4)cc3)cn2)CC1 [Example 50, tert-butyl 4-(5-(4-(piperazine-1-carbonyl)benz-yloxy)pyrimi-din-2-yl)piperazine-1-carboxylate]
42	–	CN1CCN(C(=O)c2ccc(COc3cnc(N4CCN(C(=O)OC(C)(C)C)CC4)nc3)cc2)CC1 [Example 51, tert-butyl 4-(5-(4-(4-methylpiper-azine-1-carbonyl)benz-yloxy)pyrimi-din-2-yl)piperazine-1-carboxylate]
20	–	CN1CCC(CNC(=O)c2ccc(COc3cnc(N4CCN(C(=O)OC(C)(C)C)CC4)nc3)cc2)CC1 [Example 52, tert-butyl 4-(5-(4-((1-methylpiper-idin-4-yl)methylcarba-moyl)benzyl-oxy)pyrimidin-2-yl)piperazine-1-carboxylate]
44	–	CC(C)(C)OC(=O)N1CCN(c2ncc(OCc3ccc(C(=O)N4CCOCC4)cc3)cn2)CC1 [Example 53]
51	–	Cc1cc(COc2cnc(N3CCN(C(=O)OC(C)(C)C)CC3)nc2)ccc1C(=O)NC(C)C [Example 54, Tert-butyl 4-(5-(4-(isopropylcarbamoyl)-3-methylbenzyloxy)pyrimidin-2-yl)piperazine-1-carboxylate]
65	–	Cc1cc(COc2cnc(N3CCN(C(=O)OC(C)(C)C)CC3)nc2)ccc1C(=O)NC(C)(C)C [Example 55, tert-butyl 4-(5-(4-(tert-butylcarbamoyl)-3-methylbenzyl-oxy)pyrimidin-2-yl)piperazine-1-carboxylate]

More lines, now with the values behind:

SMILES	activation at 30 µM [%]	EC50 [µM]
CC(C)OC(=O)N1CCN(c2ncc(OCc3ccc(S(C)(=O)=O)cc3)cn2)CC1 [Example 56, Isopropyl 4-(5-(4-(methylsulfonyl)benzyloxy)pyrimidin-2-yl)piperazine-1-carboxylate]	63	–
CC(C)OC(=O)N1CCN(c2ncc(OCc3ccc(S(C)(=O)=O)cc3)cn2)[C@H](C)C1 [Example 57, (R)-isopropyl 3-methyl-4-(5-(4-(methylsulfonyl)benzyloxy)pyrimidin-2-yl)piperazine-1-carboxylate]	69	–
CC(C)OC(=O)N1CCN(c2ncc(OCc3ccncc3C#N)cn2)CC1 [Example 58, isopropyl 4-(5-((3-cyanopyridin-4-yl)methoxy)pyrimidin-2-yl)piperazine-1-carboxylate]	154	–
CC1(OC(=O)N2CCN(c3ncc(OCc4ccc(S(C)(=O)=O)cc4)cn3)CC2)CC1 [Example 60, 1-Methylcyclopropyl 4-(5-(4-(methylsulfonyl)benzyloxy)pyrimidin-2-yl)piperazine-1-carboxylate]	90	–
C[C@@H]1CN(C(=O)OC2(C)CC2)CCN1c1ncc(OCc2ccc(S(C)(=O)=O)cc2)cn1 [Example 61, (R)-1-methylcyclo-propyl 3-methyl-4-(5-(4-(methylsulfonyl)benzyloxy)pyrimidin-2-yl)piperazine-1-carboxylate]	91	–
CC1(OC(=O)N2CCN(c3ncc(OCc4ccncc4C#N)cn3)CC2)CC1 [Example 62, 1-methylcyclo-propyl 4-(5-((3-cyanopyridin-4-yl)methoxy)pyrimidin-2-yl)piperazine-1-carboxylate]	208	0.116
CS(=O)(=O)c1ccc(COc2cnc(N3CCN(C(=O)OC4CCC4)CC3)nc2)cc1 [Example 63, Cyclobutyl 4-(5-(4-(methylsulfonyl)benzyloxy)pyrimidin-2-yl)piperazine-1-carboxylate]	52	–
C[C@@H]1CN(C(=O)OC2CCC2)CCN1c1ncc(OCc2ccc(S(C)(=O)=O)cc2)cn1 [Example 64, (R)-cyclobutyl 3-methyl-4-(5-(4-(methylsulf-onyl)benzyl-oxy)pyrimi-din-2-yl)piperazine-1-carboxylate]	57	–
N#Cc1cnccc1COc1cnc(N2CCN(C(=O)OC3CCC3)CC2)nc1 [Example 65, cyclobutyl 4-(5-((3-cyanopyri-din-4-yl)methoxy)pyrimidin-2-yl)piperazine-1-carboxylate]	164	–
CC(OC(=O)N1CCN(c2ncc(OCc3ccc(S(C)(=O)=O)cc3)cn2)CC1)C(F)(F)F (stereo not shown) [Example 66, 1,1,1-Trifluoropropan-2-yl 4-(5-(4-(methylsulfonyl)benzyloxy)pyrimidin-2-yl)piperazine-1-carboxylate]	56	–
CC(OC(=O)N1CCN(c2ncc(OCc3ccc(S(C)(=O)=O)cc3)cn2)[C@H](C)C1)C(F)(F)F (stereo partly drawn) [Example 67, (3R)-1,1,1-trifluoropropan-2-yl 3-methyl-4-(5-(4-(methylsulfonyl)benzyloxy)pyrim-idin-2-yl)piperazine-1-carboxylate]	60	0.039
CC(OC(=O)N1CCN(c2ncc(OCc3ccncc3C#N)cn2)CC1)C(F)(F)F (stereo not shown) [Example 68, 1,1,1-trifluoropropan-2-yl 4-(5-((3-cyanopyridin-4-yl)methoxy)pyrim-idin-2-yl)piperazine-1-carboxylate]	169	–
CC(C)(C#N)OC(=O)N1CCN(c2ncc(OCc3ccc(S(C)(=O)=O)cc3)cn2)CC1 [Example 70, 2-Cyanopropan-2-yl 4-(5-(4-(methylsulfonyl)benzyloxy)pyrimidin-2-yl)piperazine-1-carboxylate]	28	–
C[C@@H]1CN(C(=O)OC(C)(C)C#N)CCN1c1ncc(OCc2ccc(S(C)(=O)=O)cc2)cn1 [Example 71, (R)-2-cyanopropan-2-yl 3-methyl-4-(5-(4-(methylsulfonyl)benzyloxy)pyrimidin-2-yl)piperazine-1-carboxylate]	73	–
CC(C)(C#N)OC(=O)N1CCN(c2ncc(OCc3ccncc3C#N)cn2)CC1 [Example 72, 2-cyanopropan-2-yl 4-(5-((3-cyanopyridin-4-yl)methoxy)pyrimidin-2-yl)piperazine-1-carboxylate]	173	–
CS(=O)(=O)c1ccc(COc2cnc(N3CCN(C(=O)OC4COC4)CC3)nc2)cc1 [Example 75, Oxetan-3-yl 4-(5-(4-(methylsulfonyl)benzyloxy)pyrimidin-2-yl)piperazine-1-carboxylate]	31	–
C[C@@H]1CN(C(=O)OC2COC2)CCN1c1ncc(OCc2ccc(S(C)(=O)=O)cc2)cn1 [Example 76, (R)-oxetan-3-yl 3-methyl-4-(5-(4-(methylsulfonyl)benzyloxy)pyrimidin-2-yl)piperazine-1-carboxylate]	30	–
N#Cc1cnccc1COc1cnc(N2CCN(C(=O)OC3COC3)CC2)nc1 [Example 77, oxetan-3-yl 4-(5-((3-cyanopyridin-4-yl)methoxy)pyrimidin-2-yl)piperazine-1-carboxylate]	92	–
C[C@@H]1CN(C(=O)OC2CCOC2)CCN1c1ncc(OCc2ccc(S(C)(=O)=O)cc2)cn1 (stereo partly drawn) [Example 78, (3R)-Tetrahydrofuran-3-yl 3-methyl-4-(5-(4-(methylsulfonyl)benzyloxy)pyrimidin-2-yl)piperazine-1-carboxylate]	8	–
CC1(OC(=O)N2CCN(c3ncc(OCc4ccc(S(C)(=O)=O)cc4)cn3)CC2)COC1 [Example 79, 3-Methyloxetan-3-yl 4-(5-(4-(methylsulfonyl)benzyloxy)pyrimidin-2-yl)piperazine-1-carboxylate]	37	–
